From US11046672B2, “Indolinones compounds and their use in the treatment of fibrotic diseases” (RESPIVERT LIMITED, priority 2015, dated 2021)

Tests used:
[1] = PAMPA permeability assay; type: in vitro ADME; details: PAMPA; for recovery at 5 hr, 10 μM: donor and acceptor compartments; for Papp at 5 h, 10 μM: pH 7, pH 7, 10 μM
[2] = system: MRC5 cells; experiment: Cell viability assay in MRC5 cells (MTT)
[3] = target: T1, PDGFRβ (Homo sapiens (Human), UniProt P09619); experiment: PDGF-BB induced phosphorylation of PDGFRβ in fibroblasts (MRC5 cells, HTRF); type: cell-based; details: MRC5 cells; n = 1 unless otherwise indicated; read-out: PDGFBB-induced PDGFRβ phosphorylation in MRC5 cells (IC50)
[4] = target: T1, PDGFRβ; details: read-out: Ki PDGFRβ; mean, n = 2 unless otherwise indicated
[5] = target: T1, PDGFRβ; experiment: Duration of action (washout) against PDGF-BB induced phosphorylation of PDGFRβ in human fetal lung fibroblast cells; type: cell-based; details: MRC-5 cells, after wash-out, rhuPDGF-BB; experiments in Groups 1-4

T1 sequence (P09619 33-1106): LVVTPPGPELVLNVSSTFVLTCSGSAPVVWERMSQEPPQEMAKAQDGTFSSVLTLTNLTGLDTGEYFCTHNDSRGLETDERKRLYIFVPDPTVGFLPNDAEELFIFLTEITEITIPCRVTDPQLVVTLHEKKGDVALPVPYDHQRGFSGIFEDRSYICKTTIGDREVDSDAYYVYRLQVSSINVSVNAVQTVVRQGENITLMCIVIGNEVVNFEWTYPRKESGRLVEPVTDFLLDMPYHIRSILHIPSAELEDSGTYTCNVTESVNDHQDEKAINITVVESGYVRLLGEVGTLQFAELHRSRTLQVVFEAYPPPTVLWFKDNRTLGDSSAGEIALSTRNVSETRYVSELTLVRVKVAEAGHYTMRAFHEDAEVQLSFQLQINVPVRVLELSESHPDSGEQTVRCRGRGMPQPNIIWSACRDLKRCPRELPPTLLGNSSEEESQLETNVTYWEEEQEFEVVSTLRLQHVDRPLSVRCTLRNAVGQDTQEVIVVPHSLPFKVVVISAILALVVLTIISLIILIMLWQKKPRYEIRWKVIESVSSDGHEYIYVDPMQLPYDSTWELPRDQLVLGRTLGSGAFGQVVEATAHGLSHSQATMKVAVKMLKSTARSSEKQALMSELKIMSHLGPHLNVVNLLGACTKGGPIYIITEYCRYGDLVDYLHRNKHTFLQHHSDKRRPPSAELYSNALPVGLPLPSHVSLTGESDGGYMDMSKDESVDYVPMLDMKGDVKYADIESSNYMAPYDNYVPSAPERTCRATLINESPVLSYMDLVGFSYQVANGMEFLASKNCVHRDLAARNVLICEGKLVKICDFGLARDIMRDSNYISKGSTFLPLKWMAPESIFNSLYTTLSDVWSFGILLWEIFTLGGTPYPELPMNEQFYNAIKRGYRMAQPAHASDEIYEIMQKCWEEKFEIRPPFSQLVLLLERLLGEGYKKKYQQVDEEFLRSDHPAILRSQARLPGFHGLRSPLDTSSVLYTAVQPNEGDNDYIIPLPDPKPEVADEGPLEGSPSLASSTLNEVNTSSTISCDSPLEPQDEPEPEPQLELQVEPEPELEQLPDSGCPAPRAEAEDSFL

| recovery at 5 hr, 10 μM ([1]; pH 7, PAMPA) [%] | Papp at 5 h, 10 μM [1] [×10⁻⁶ cm/s] | IC50 [3] [nM] | Ki [4] [nM] | % phos: percentage phosphorylation after wash-out relative to maximal phosphorylation (100%) [5] [%] | SMILES | Cell viability at 100 nM (%) [2] [%] | Cell viability at 300 nM (%) [2] [%] | Cell viability at 1000 nM (%) [2] [%] | recovery at 5 hr, 10 μM ([1]; pH 7) [%] |
| --- | --- | --- | --- | --- | --- | --- | --- | --- | --- |
| 69.7 | 0.719 | 3.95 | 7.19 | – | COC(=O)c1cc2c(cc1C)/C(=C(/Nc1ccc(C(=O)N(C)OCCN(C)CCO)cc1)c1ccccc1)C(=O)N2 [Example 56] | 132 | 121 | 70.5 | – |
| 50.5 | 0.688 | 5.04 | 9.84 | 73.1 | COC(=O)c1cc2c(cc1C)/C(=C(/Nc1ccc(C(=O)N(C)OCCN3CCNCC3)cc1)c1ccccc1)C(=O)N2 [Example 57] | 123.5 | 123.2 | 91.2 | – |
| 49.5 | 0.0296 | 4.06 | 8.87 | – | COC(=O)c1cc2c(cc1C)/C(=C(/Nc1ccc(C(=O)N(C)OCCN3CCN(CCO)CC3)cc1)c1ccccc1)C(=O)N2 [Example 58] | 110.2 | 116.9 | 55.6 | – |
| 69.6 | 0.0364 | 25.4 | 9.19 | – | COC(=O)c1cc2c(cc1C)/C(=C(/Nc1ccc(C(=O)N(C)OCCN3C[C@@H]4C[C@H]3CN4)cc1)c1ccccc1)C(=O)N2 [Example 59] | 123.5 | 107.7 | 103.8 | – |

The next lines start with the compound.

| SMILES | recovery at 5 hr, 10 μM ([1]; pH 7, PAMPA) [%] | Papp at 5 h, 10 μM [1] [×10⁻⁶ cm/s] | IC50 [3] [nM] | Ki [4] [nM] | % phos: percentage phosphorylation after wash-out relative to maximal phosphorylation (100%) [5] [%] | Cell viability at 100 nM (%) [2] [%] | Cell viability at 300 nM (%) [2] [%] | Cell viability at 1000 nM (%) [2] [%] | recovery at 5 hr, 10 μM ([1]; pH 7) [%] |
| --- | --- | --- | --- | --- | --- | --- | --- | --- | --- |
| COC(=O)c1cc2c(cc1C)/C(=C(/Nc1ccc(C(=O)NOCCN3CCC(OC)CC3)cc1)c1ccccc1)C(=O)N2 [Example 52] | 76.2 | 0.279 | 21.8 | 17 | – | 62 | 50.9 | 59.8 | – |
| COC(=O)c1cc2c(cc1C)/C(=C(/Nc1ccc(C(=O)N(C)OCCN3C4CCC3CNC4)cc1)c1ccccc1)C(=O)N2 [Example 60] | – | 0.0503 | 5.6 | 13 | – | 88.8 | 84.4 | 0.2 | 69.2 |
| COC(=O)c1cc2c(cc1C)/C(=C(/Nc1ccc(C(=O)N(C)OCCN3CC4CCC(C3)N4)cc1)c1ccccc1)C(=O)N2 [Example 61] | – | 0.0205 | 7.84 | 18.3 | – | 83 | 86.6 | 35.2 | 64.4 |
